Assay in all cases: Antibacterial activity, microbroth dilution method (MIC)
(In general: Dilution methods test growth across graded concentrations, often in twofold steps.)

In assay [1] the test system is Gram-positive Staphylococcus aureus (S. aureus) 29213. The format is cell-based. The note with it: Staphylococcus aureus, Gram-positive S. aureus 29213. The essentials:
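Broth microdilution; endpoint = no macroscopic growth; value = lowest inhibiting concn, μg/mL.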

Assay [2] deals with super sensitive Gram-negative Escherichia coli (E. coli) BAS849. Type of assay: cell-based. The note with it: Escherichia coli; super sensitive Gram-negative E. coli BAS849; microbroth dilution; read-out: MIC, E. coli BAS849. The essentials:
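Broth microdilution against S. aureus 29213, E. coli 25922 and hypersensitive E. coli BAS849. MIC in μg/mL is the lowest drug concentration preventing macroscopically visible growth under test conditions.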

Assay [3] relates to control Gram-negative E. coli 25922 strain. Type of assay: cell-based, Escherichia coli. The note with it: Escherichia coli. The procedure, abridged:
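MIC (μg/mL) is taken as the lowest concentration with no macroscopically visible growth. Strains tested by microbroth dilution: Gram-positive S. aureus 29213, control Gram-negative E. coli 25922, and super-sensitive E. coli BAS849.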

This passage reports MIC results from US20150038438A1, “ANTIBACTERIAL COMPOUNDS AND METHODS FOR USE” (PTC THERAPEUTICS, INC., priority 2011, published 2015).

Converted amounts (≈) assume the structure as drawn. Counter-ions that a name gives are not always drawn. Some results are limits rather than exact numbers.

On to `CNCCNCc1cc2cc3c(cc2n1C)OCCc1c-3[nH]c(=O)c(C(=O)O)c1O.Cl.Cl` [Cpd 181, 4-hydroxy-9-methyl-10-(((2-(methylamino)ethyl)amino)methyl)-2-oxo-2,5,6,9-tetrahydro-1H-pyrido[2′,3′:4,5]oxepino[3,2-f]indole-3-carboxylic acid dihydrochloride], for which the MIC in assay [1], in assay [2] and in assay [3] was 12.5 to 150 µg/mL throughout.

In the case of `CCNCc1cc2cc3c(cc2n1C)NCCc1c-3[nH]c(=O)c(C(=O)O)c1O.Cl` [Cpd 100, 10-((ethylamino)methyl)-4-hydroxy-9-methyl-2-oxo-1,2,5,6,7,9-hexahydropyrido[2′,3′:4,5]azepino[3,2-f]indole-3-carboxylic acid hydrochloride], the MIC in assay [1] is 12.5 to 150 µg/mL; in assay [2], 1 to 3.5 µg/mL; in assay [3], 12.5 to 150 µg/mL.

With `CN(C)C(=O)CNCc1cc2cc3c(cc2n1C)CCCc1c-3[nH]c(=O)c(C(=O)O)c1O.Cl` [Cpd 163, 10-(((2-(dimethylamino)-2-oxoethyl)amino)methyl)-4-hydroxy-9-methyl-2-oxo-1,2,5,6,7,9-hexahydropyrido[3′,2′:6,7]cyclohepta[1,2-f]indole-3-carboxylic acid hydrochloride], the minimal inhibitory concentration (MIC) is 12.5 to 150 µg/mL in assay [1], less than 1 µg/mL in assay [2] and 3.5 to 12.5 µg/mL in assay [3].

`CNCCNCc1cc2cc3c(cc2n1C)CCCc1c-3[nH]c(=O)c(C(=O)O)c1O.Cl.Cl` [Cpd 143, 4-hydroxy-9-methyl-10-(((2-(methylamino)ethyl)amino)methyl)-2-oxo-1,2,5,6,7,9-hexahydropyrido[3′,2′:6,7]cyclohepta[1,2-f]indole-3-carboxylic acid dihydrochloride]: the MIC was 12.5 to 150 µg/mL in assay [1], 3.5 to 12.5 µg/mL in assay [2] and 12.5 to 150 µg/mL in assay [3].

Consider `CN1CCc2c([nH]c(=O)c(C(=O)O)c2O)-c2ccc(N3CCCC3)cc21` [Cpd 93, 4-hydroxy-7-methyl-2-oxo-9-(pyrrolidin-1-yl)-2,5,6,7-tetrahydro-1H-benzo[b]pyrido[2,3-d]azepine-3-carboxylic acid], for which the values for the MIC in assay [1], in assay [2] and in assay [3] were 12.5 to 150 µg/mL (≈ 35.2 to 422 µM), 3.5 to 12.5 µg/mL (≈ 9.85 to 35.2 µM) and 12.5 to 150 µg/mL (≈ 35.2 to 422 µM), respectively.

Turning to `CC1Cc2cc3c(cc2-c2[nH]c(=O)c(C(=O)O)c(O)c21)OCO3` (stereo not drawn) [Cpd 106, 4-hydroxy-5-methyl-2-oxo-1,2,5,6-tetrahydro-[1,3]dioxolo[4′,5′:4,5]benzo[1,2-h]quinoline-3-carboxylic acid], the values for the MIC in assay [1], in assay [2] and in assay [3] were 12.5 to 150 µg/mL (≈ 39.6 to 476 µM), 1 to 3.5 µg/mL (≈ 3.17 to 11.1 µM) and 12.5 to 150 µg/mL (≈ 39.6 to 476 µM), respectively.

Turning to `CCCNCc1cc2cc3c(cc2n1C)OCCc1c-3[nH]c(=O)c(C(=O)O)c1O.Cl` [Cpd 169, 4-hydroxy-9-methyl-2-oxo-10-((propylamino)methyl)-2,5,6,9-tetrahydro-1H-pyrido[2′,3′:4,5]oxepino[3,2-f]indole-3-carboxylic acid hydrochloride], the minimum inhibitory concentration (MIC) was 3.5 to 12.5 µg/mL in assay [1], less than 1 µg/mL in assay [2] and less than 1 µg/mL in assay [3].

`C#CCNCc1cc2cc3c(cc2n1C)CCCc1c-3[nH]c(=O)c(C(=O)O)c1O.Cl` [Cpd 45, 4-hydroxy-9-methyl-2-oxo-10-((prop-2-yn-1-ylamino)methyl)-1,2,5,6,7,9-hexahydropyrido[3′,2′:6,7]cyclohepta[1,2-f]indole-3-carboxylic acid hydrochloride]: the figures for the MIC in assay [1], in assay [2] and in assay [3] were 1 to 3.5 µg/mL, less than 1 µg/mL and 1 to 3.5 µg/mL, respectively.

With `Cl.Cn1c(CN2CCOCC2)cc2cc3c(cc21)CCCc1c-3[nH]c(=O)c(C(=O)O)c1O` [Cpd 41, 4-hydroxy-9-methyl-10-(morpholinomethyl)-2-oxo-1,2,5,6,7,9-hexahydropyrido[3′,2′:6,7]cyclohepta[1,2-f]indole-3-carboxylic acid hydrochloride], the results for the MIC in assay [1], in assay [2] and in assay [3] were 1 to 3.5 µg/mL, less than 1 µg/mL and 3.5 to 12.5 µg/mL, respectively.

Regarding `CC1COc2cc(N3C[C@@H]4[C@@H](N)[C@@H]4C3)ccc2-c2[nH]c(=O)c(C(=O)O)c(O)c21` (stereo partly drawn) [Cpd 86, 9-((cis,cis)-6-amino-3-azabicyclo[3.1.0]hexan-3-yl)-4-hydroxy-5-methyl-2-oxo-1,2,5,6-tetrahydrobenzo[2,3]oxepino[4,5-b]pyridine-3-carboxylic acid hydrochloride], the MIC is 12.5 to 150 µg/mL in assay [1], less than 1 µg/mL in assay [2] and 3.5 to 12.5 µg/mL in assay [3].

As to `O=C(O)c1c(O)c2c([nH]c1=O)-c1ccc(N3CCCC3)cc1NCC2` [Cpd 94, 4-hydroxy-2-oxo-9-(pyrrolidin-1-yl)-2,5,6,7-tetrahydro-1H-benzo[b]pyrido[2,3-d]azepine-3-carboxylic acid], the minimal inhibitory concentration (MIC) was 12.5 to 150 µg/mL (≈ 36.6 to 439 µM) in assay [1], less than 1 µg/mL in assay [2] and 1 to 3.5 µg/mL (≈ 2.93 to 10.3 µM) in assay [3].

Regarding `CCNc1ccc2c(c1)CCCCc1c-2[nH]c(=O)c(C(=O)O)c1O` [Cpd 129, 10-(ethylamino)-4-hydroxy-2-oxo-1,2,5,6,7,8-hexahydrobenzo[7,8]cycloocta[1,2-b]pyridine-3-carboxylic acid], the values for the MIC in assay [1], in assay [2] and in assay [3] were 3.5 to 12.5 µg/mL (≈ 10.7 to 38.1 µM), 1 to 3.5 µg/mL (≈ 3.05 to 10.7 µM) and 12.5 to 150 µg/mL (≈ 38.1 to 457 µM), respectively.

In the case of `CN(C)CCNCc1cc2cc3c(cc2n1C)OCCc1c-3[nH]c(=O)c(C(=O)O)c1O.Cl.Cl` [Cpd 182, 10-(((2-(dimethylamino)ethyl)amino)methyl)-4-hydroxy-9-methyl-2-oxo-2,5,6,9-tetrahydro-1H-pyrido[2′,3′:4,5]oxepino[3,2-f]indole-3-carboxylic acid dihydrochloride], the results for the MIC in assay [1], in assay [2] and in assay [3] were 12.5 to 150 µg/mL, 1 to 3.5 µg/mL and 12.5 to 150 µg/mL, respectively.

For the molecule `CN(C)C1CCN(c2ccc3c(c2)CCCc2c-3[nH]c(=O)c(C(=O)O)c2O)C1.Cl` (stereo not drawn) [Cpd 6, 9-(3-(dimethylamino)pyrrolidin-1-yl)-4-hydroxy-2-oxo-2,5,6,7-tetrahydro-1H-benzo[6,7]cyclohepta[1,2-b]pyridine-3-carboxylic acid hydrochloride], the MIC in assay [1] was 12.5 to 150 µg/mL; in assay [2], less than 1 µg/mL; in assay [3], 3.5 to 12.5 µg/mL.

Consider `CC(C)NCc1cc2cc3c(cc2n1C)OCCc1c-3[nH]c(=O)c(C(=O)O)c1O.Cl` [Cpd 90, 4-hydroxy-10-((isopropylamino)methyl)-9-methyl-2-oxo-2,5,6,9-tetrahydro-1H-pyrido[2′,3′:4,5]oxepino[3,2-f]indole-3-carboxylic acid hydrochloride], for which the MIC is 12.5 to 150 µg/mL in assay [1], less than 1 µg/mL in assay [2] and less than 1 µg/mL in assay [3].

Take `CNC1CCN(c2ccc3c(c2)CCCc2c-3[nH]c(=O)c(C(=O)O)c2O)C1.Cl` (stereo not drawn) [Cpd 8, 4-hydroxy-9-(3-(methylamino)pyrrolidin-1-yl)-2-oxo-2,5,6,7-tetrahydro-1H-benzo[6,7]cyclohepta[1,2-b]pyridine-3-carboxylic acid hydrochloride]: the values for the MIC in assay [1], in assay [2] and in assay [3] were 12.5 to 150 µg/mL, 1 to 3.5 µg/mL and 3.5 to 12.5 µg/mL, respectively.

`CN(C)C1CCN(c2ccc3c(c2)CCCc2c-3[nH]c(=O)c(C(=O)O)c2O)CC1.Cl` [Cpd 116, 9-(4-(dimethylamino)piperidin-1-yl)-4-hydroxy-2-oxo-2,5,6,7-tetrahydro-1H-benzo[6,7]cyclohepta[1,2-b]pyridine-3-carboxylic acid hydrochloride]: the MIC in assay [1] is 12.5 to 150 µg/mL; in assay [2] it was 3.5 to 12.5 µg/mL; in assay [3], 12.5 to 150 µg/mL.

On to `CC(C)NCc1cc2cc3c(cc2n1C)CCCc1c-3[nH]c(=O)c(C(=O)O)c1O.Cl` [Cpd 26, 4-hydroxy-10-((isopropylamino)methyl)-9-methyl-2-oxo-1,2,5,6,7,9-hexahydropyrido[3′,2′:6,7]cyclohepta[1,2-f]indole-3-carboxylic acid hydrochloride], for which the MIC is 3.5 to 12.5 µg/mL in assay [1], less than 1 µg/mL in assay [2] and less than 1 µg/mL in assay [3].

With `CN(C)C1CCN(Cc2cc3cc4c(cc3n2C)CCCc2c-4[nH]c(=O)c(C(=O)O)c2O)CC1.Cl.Cl` [Cpd 30, 10-((4-(dimethylamino)piperidin-1-yl)methyl)-4-hydroxy-9-methyl-2-oxo-1,2,5,6,7,9-hexahydropyrido[3′,2′:6,7]cyclohepta[1,2-f]indole-3-carboxylic acid dihydrochloride], the values for the MIC in assay [1], in assay [2] and in assay [3] were 3.5 to 12.5 µg/mL, less than 1 µg/mL and 3.5 to 12.5 µg/mL, respectively.

As to `CC1Cc2cc(N3CCCC3)ccc2-c2[nH]c(=O)c(C(=O)O)c(O)c21` (stereo not drawn) [Cpd 107, 4-hydroxy-5-methyl-2-oxo-8-(pyrrolidin-1-yl)-1,2,5,6-tetrahydrobenzo[h]quinoline-3-carboxylic acid], the values for the MIC in assay [1], in assay [2] and in assay [3] were 3.5 to 12.5 µg/mL (≈ 10.3 to 36.7 µM), less than 1 µg/mL and 12.5 to 150 µg/mL (≈ 36.7 to 441 µM), respectively.

Take `N[C@@H]1[C@H]2CN(c3ccc4c(c3)NCCc3c-4[nH]c(=O)c(C(=O)O)c3O)C[C@@H]12` [Cpd 97, 9-((cis,cis)-6-amino-3-azabicyclo[3.1.0]hexan-3-yl)-4-hydroxy-2-oxo-2,5,6,7-tetrahydro-1H-benzo[b]pyrido[2,3-d]azepine-3-carboxylic acid hydrochloride]: the MIC in assay [1] lay in the range of 12.5 to 150 µg/mL; in assay [2] it was 1 to 3.5 µg/mL; in assay [3], 3.5 to 12.5 µg/mL.

Consider `Cn1ccc2cc3c(cc21)C=CCc1c-3[nH]c(=O)c(C(=O)O)c1O` [Cpd 16, 4-hydroxy-9-methyl-2-oxo-1,2,5,9-tetrahydropyrido[3′,2′:6,7]cyclohepta[1,2-f]indole-3-carboxylic acid], for which the MIC is 1 to 3.5 µg/mL (≈ 3.1 to 10.9 µM) in assay [1], less than 1 µg/mL in assay [2] and 1 to 3.5 µg/mL (≈ 3.1 to 10.9 µM) in assay [3].

For `Cn1ccc2cc3c(cc21)CCCc1c-3[nH]c(=O)c(C(=O)O)c1O` [Cpd 17, 4-hydroxy-9-methyl-2-oxo-1,2,5,6,7,9-hexahydropyrido[3′,2′:6,7]cyclohepta[1,2-f]indole-3-carboxylic acid], the figures for the MIC in assay [1], in assay [2] and in assay [3] were 1 to 3.5 µg/mL (≈ 3.08 to 10.8 µM), less than 1 µg/mL and 1 to 3.5 µg/mL (≈ 3.08 to 10.8 µM), respectively.

Broadly, the MIC is the lowest concentration found to suppress growth.
